According to PubChem BioAssay (NCI):
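1) Cells in 96-well plates. 2) Compound, 48 h, 5 concentrations. 3) Linear interpolation between surrounding doses. 4) Unreached endpoint = highest concentration. TGI is the concentration that stops growth completely.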

Experiments:
Assay in all cases: NCI anticancer screen, dose series, 48 h
UACC-257 melanoma = system: UACC-257 melanoma
SK-MEL-2 melanoma = system: SK-MEL-2 melanoma
U251 CNS = system: U251 CNS
OVCAR-3 ovarian = system: OVCAR-3 ovarian
IGROV1 ovarian = system: IGROV1 ovarian
786-0 renal = system: 786-0 renal
SNB-19 CNS = system: SNB-19 CNS
TK-10 renal = system: TK-10 renal
NCI-H522 lung = system: NCI-H522 lung
SK-OV-3 ovarian = system: SK-OV-3 ovarian
LOX IMVI melanoma = system: LOX IMVI melanoma
COLO 205 colon = system: COLO 205 colon
A498 renal = system: A498 renal
T-47D breast = system: T-47D breast
EKVX NSCLC = system: EKVX NSCLC
SF-295 CNS = system: SF-295 CNS
MOLT-4 leukemia = system: MOLT-4 leukemia
NCI-H460 lung = system: NCI-H460 lung
OVCAR-4 ovarian = system: OVCAR-4 ovarian
CCRF-CEM leukemia = system: CCRF-CEM leukemia

| Structure (SMILES) | TGI (UACC-257 melanoma) [µM] | TGI (SK-MEL-2 melanoma) [µM] | TGI (U251 CNS) [µM] | TGI (OVCAR-3 ovarian) [µM] | TGI (IGROV1 ovarian) [µM] | TGI (786-0 renal) [µM] | TGI (SNB-19 CNS) [µM] | TGI (TK-10 renal) [µM] | TGI (NCI-H522 lung) [µM] | TGI (SK-OV-3 ovarian) [µM] | TGI (LOX IMVI melanoma) [µM] | TGI (COLO 205 colon) [µM] | TGI (A498 renal) [µM] | TGI (T-47D breast) [µM] | TGI (EKVX NSCLC) [µM] | TGI (SF-295 CNS) [µM] | TGI (MOLT-4 leukemia) [µM] | TGI (NCI-H460 lung) [µM] | TGI (OVCAR-4 ovarian) [µM] | TGI (CCRF-CEM leukemia) [µM] |
| --- | --- | --- | --- | --- | --- | --- | --- | --- | --- | --- | --- | --- | --- | --- | --- | --- | --- | --- | --- | --- |
| CCOP(=O)(OCC)/C(C#N)=C/c1cccn1CC(C)C | > 100 | > 100 | > 100 | > 100 | > 100 | > 100 | > 100 | > 100 | > 100 | > 100 | > 100 | > 100 | > 100 | > 100 | > 100 | > 100 | > 100 | > 100 | – | – |
| CC(=O)OCC1OC(n2c(N)c(C#N)c(-c3ccc(C)cc3)c(C#N)c2=S)C(OC(C)=O)C(OC(C)=O)C1OC(C)=O (stereo unspecified) | 39.7 | 28.5 | 30.6 | > 100 | 45.4 | 29.2 | 34.8 | 37.9 | – | 66.5 | > 100 | 29.4 | > 100 | 47.8 | 34.7 | 73.8 | – | > 100 | > 100 | 78.4 |
| Cc1c2c(n(Cc3ccccn3)c1C)NN=C(C#N)S2(=O)=O | > 100 | > 100 | > 100 | > 100 | > 100 | > 100 | > 100 | > 100 | > 100 | > 100 | > 100 | > 100 | > 100 | > 100 | > 100 | > 100 | > 100 | > 100 | > 100 | – |
| CC(C)NCC(O)c1ccc(OCc2ccccc2)c(OCc2ccccc2)c1-c1ccccc1 (stereo unspecified) | 3.54 | 4.18 | – | 3.22 | 2.71 | 3.25 | 4.07 | 3.9 | 3.16 | 3.16 | 13.8 | 3.2 | 11.6 | 7.53 | 32.3 | 3.55 | 4.55 | 3.49 | 3.79 | – |
| O=C(OC(=C(c1ccccc1)c1ccccc1)N1CCCC1=S)C(c1ccccc1)c1ccccc1 | > 10 | > 10 | > 10 | > 10 | > 10 | > 10 | > 10 | > 10 | – | > 10 | > 10 | 5.5 | > 10 | > 10 | > 10 | > 10 | > 10 | > 10 | > 10 | > 10 |
| O=C(Cc1ccc(Cl)c(Cl)c1)N(CCc1ccc(Cl)c(Cl)c1)CCN1CCCC1 | 3.51 | 3.36 | 3.15 | 5.47 | 3.27 | 3 | 4.9 | 3.22 | 3.3 | 7.49 | – | 3.38 | 3.45 | 16.1 | 3.78 | 3.84 | 2.98 | 3.39 | 5.28 | 3.12 |
